A value given as a limit tells only on which side of the number the result lay.

For the first test, the target named is T1, CYP4A (Homo sapiens, UniProt Q02928).
T1 construct: purchased; host or cells: bacterial membranes ('bactosome')
T1 sequence (Q02928 5-519): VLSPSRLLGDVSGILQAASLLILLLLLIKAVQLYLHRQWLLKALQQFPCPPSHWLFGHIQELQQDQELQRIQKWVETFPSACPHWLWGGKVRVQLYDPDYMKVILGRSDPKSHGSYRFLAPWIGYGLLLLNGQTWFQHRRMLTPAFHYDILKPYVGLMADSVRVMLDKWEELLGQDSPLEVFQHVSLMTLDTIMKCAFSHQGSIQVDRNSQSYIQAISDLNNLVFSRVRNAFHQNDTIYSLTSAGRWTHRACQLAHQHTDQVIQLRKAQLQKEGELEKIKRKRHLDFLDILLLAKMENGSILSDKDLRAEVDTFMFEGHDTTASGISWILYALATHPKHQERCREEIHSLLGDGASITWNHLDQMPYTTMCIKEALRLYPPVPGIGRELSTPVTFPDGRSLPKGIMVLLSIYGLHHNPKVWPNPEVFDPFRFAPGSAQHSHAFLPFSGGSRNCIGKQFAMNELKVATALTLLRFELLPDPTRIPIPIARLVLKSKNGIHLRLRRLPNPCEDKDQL
The experiment in a line: CYP4A enzyme assay (luminescence, Luciferin-ME). It counts as biochemical. To be noted: Compound concentration 5 μM; 50%-70%; read-out: % Inhibition 50%-70%. The procedure, abridged: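 Compounds (5 μM) were preincubated 15 min at room temperature with CYP4A bactosomes in 100 mM KPO4, 0.1% BSA, 1 mM DTT. Reaction ran 30 min at room temperature after adding 5 mM Luciferin-ME and NADPH regeneration system. Luminescence after 15 min with detection reagent; inhibition judged by comparing well signals.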
On to `COc1ccc2c(N3CCN(C(=O)C4CCCN(C(=O)C5CCCCC5)C4)CC3)ccnc2c1` (stereo not drawn) [Example 92, (4-(7-methoxyquinolin-4-yl)piperazin-1-yl)(1-(cyclohexylcarbonyl)piperidin-3-yl)methanone], for which the inhibition (in general, the percentage by which the read-out fell short of the control) at 5 µM was 50 to 70%.

Take `O=C(C1CCCN(S(=O)(=O)CCCO)C1)N1CCN(c2ccnc3cc(F)ccc23)CC1` (stereo not drawn) [Example 131, (4-(7-fluoroquinolin-4-yl)piperazin-1-yl)(1-((3-hydroxypropyl)sulfonyl)piperidin-3-yl)methanone]: the inhibition at 5 µM lay within 50 to 70%.

Take `CC(=O)Nc1ccc(C(=O)N2CCCC(C(=O)N3CCN(c4cc(C(F)(F)F)nc5ccccc45)CC3)C2)cc1` (stereo not drawn) [Example 95, N-(4-(3-(1-(2-(trifluoromethyl)quinolin-4-yl)piperazine-4-carbonyl)piperidine-1-carbonyl)phenyl)acetamide]: the inhibition at 5 µM is 50 to 70%.

Take `CC(=O)Nc1ccc(C(=O)N2CCCC(C(=O)N3CCN(c4cc(C)nc5ccccc45)CC3)C2)cc1` (stereo not drawn) [Example 100, N-(4-(3-(1-(2-methylquinolin-4-yl)piperazine-4-carbonyl)piperidine-1-carbonyl)phenyl)acetamide]: the inhibition at 5 µM lay in the range of 50 to 70%.

Consider `COC(=O)CCS(=O)(=O)N1CCCC(C(=O)N2CCN(c3ccnc4cc(F)ccc34)CC2)C1` (stereo not drawn) [Example 130, methyl 3-((3-(4-(7-fluoroquinolin-4-yl)piperazine-1-carbonyl)piperidin-1-yl)sulfonyl)propanoate], for which the inhibition at 5 µM lay in the range of 50 to 70%.

For `O=C(C1CCCN(S(=O)(=O)c2ccco2)C1)N1CCN(c2ccnc3cc(Cl)ccc23)CC1` (stereo not drawn) [Example 123, (4-(7-chloroquinolin-4-yl)piperazin-1-yl)(1-(furan-2-ylsulfonyl)piperidin-3-yl)methanone], the inhibition at 5 µM was 50 to 70%.

As to `O=C(C1CCCN(S(=O)(=O)C2CC2)C1)N1CCN(c2ccnc3ccccc23)CC1` (stereo not drawn) [Example 122, (1-(cyclopropylsulfonyl)piperidin-3-yl)(4-(quinolin-4-yl)piperazin-1-yl)methanone], the inhibition at 5 µM was 50 to 70%.

Take `Cc1cc(N2CCN(C(=O)C3CCCN(S(=O)(=O)c4ccncc4)C3)CC2)c2ccccc2n1` (stereo not drawn) [Example 126, (4-(2-methylquinolin-4-yl)piperazin-1-yl)(1-(pyridin-4-ylsulfonyl)piperidin-3-yl)methanone]: the inhibition at 5 µM fell in the range of 50 to 70%.

The same test, now with this note: Compound concentration 5 μM; 70%-90%; read-out: % Inhibition 70%-90%.
As to `Cc1nn(C)c(C)c1S(=O)(=O)N1CC[C@H](C(=O)N2CCN(c3ccnc4ccccc34)CC2)C1` [Example 151, (S)-(4-(quinolin-4-yl)piperazin-1-yl)(1-((1,3,5-trimethyl-1H-pyrazol-4-yl)sulfonyl)pyrrolidin-3-yl)methanone], the inhibition at 5 µM fell in the range of 70 to 90%.

In the case of `COc1ccc(S(=O)(=O)N2CCC(C(=O)N3CCN(c4ccnc5ccccc45)CC3)C2)cn1` (stereo not drawn) [Example 51, (1-((6-methoxypyridin-3-yl)sulfonyl)pyrrolidin-3-yl)(4-(quinolin-4-yl)piperazin-1-yl)methanone], the inhibition at 5 µM was in the range of 70 to 90%.

For `O=C(c1ccc(F)cc1)N1CCCC(C(=O)N2CCN(c3ccnc4cc(Cl)ccc34)CC2)C1` (stereo not drawn) [Example 84, (4-(7-chloroquinolin-4-yl)piperazin-1-yl)(1-(4-fluorophenylcarbonyl)piperidin-3-yl)methanone], the inhibition at 5 µM was in the range of 70 to 90%.

Take `O=C(C1CCCN(S(=O)(=O)c2ccncc2)C1)N1CCN(c2ccnc3cc(Cl)ccc23)CC1` (stereo not drawn) [Example 124, (4-(7-chloroquinolin-4-yl)piperazin-1-yl)(1-(pyridin-4-ylsulfonyl)piperidin-3-yl)methanone]: the inhibition at 5 µM lay in the range of 70 to 90%.

For the molecule `Nc1cccc(S(=O)(=O)N2CC(C(=O)N3CCN(c4ccnc5cc(F)ccc45)CC3)C2)c1` [Example 72, (1-((3-aminophenyl)sulfonyl)azetidin-3-yl)(4-(7-fluoroquinolin-4-yl)piperazin-1-yl)methanone], the inhibition at 5 µM was 70 to 90%.

For the molecule `O=C(C1CCN(S(=O)(=O)c2cccs2)C1)N1CCN(c2ccnc3ccccc23)CC1` (stereo not drawn) [Example 36, (4-(quinolin-4-yl)piperazin-1-yl)(1-(thiophen-2-ylsulfonyl)pyrrolidin-3-yl)methanone], the inhibition at 5 µM lay in the range of 70 to 90%.

Take `Cn1cnc(S(=O)(=O)N2CC[C@H](C(=O)N3CCN(c4ccnc5cc(F)ccc45)CC3)C2)n1` [Example 139, (S)-(4-(7-fluoroquinolin-4-yl)piperazin-1-yl)(1-((1-methyl-1H-1,2,4-triazol-3-yl)sulfonyl)pyrrolidin-3-yl)methanone]: the inhibition at 5 µM is 70 to 90%.

In the case of `CC(C)n1cnc(S(=O)(=O)N2CC[C@H](C(=O)N3CCN(c4ccnc5cc(F)ccc45)CC3)C2)n1` [Example 141], the inhibition at 5 µM lay within 70 to 90%.

As for `O=C(C1CCN(S(=O)(=O)c2ncn[nH]2)CC1)N1CCN(c2ccnc3cc(F)ccc23)CC1` [Example 135, (1-((1H-1,2,4-triazol-5-yl)sulfonyl)piperidin-4-yl)(4-(7-fluoroquinolin-4-yl)piperazin-1-yl)methanone], the inhibition at 5 µM lay within 70 to 90%.

For `Cc1nn(C)c(C)c1S(=O)(=O)N1CC[C@@H](C(=O)N2CCN(c3ccnc4ccccc34)CC2)C1` [Example 152, (R)-(4-(quinolin-4-yl)piperazin-1-yl)(1-((1,3,5-trimethyl-1H-pyrazol-4-yl)sulfonyl)pyrrolidin-3-yl)methanone], the inhibition at 5 µM lay in the range of 70 to 90%.

Take `Cc1ccc(S(=O)(=O)N2CCC(C(=O)N3CCN(c4ccnc5ccccc45)CC3)C2)s1` (stereo not drawn) [Example 37, (1-((5-methylthiophen-2-yl)sulfonyl)pyrrolidin-3-yl)(4-(quinolin-4-yl)piperazin-1-yl)methanone]: the inhibition at 5 µM lay within 70 to 90%.

The same test, now with this note: Compound concentration 5 μM; Greater than 90%; read-out: % Inhibition Greater than 90%.
For the molecule `Cc1n[nH]c(C)c1S(=O)(=O)N1CCC(C(=O)N2CCN(c3ccnc4cc(F)ccc34)CC2)C1` (stereo not drawn) [Example 11, (1-((3,5-dimethyl-1H-pyrazol-4-yl)sulfonyl)pyrrolidin-3-yl)(4-(7-fluoroquinolin-4-yl)piperazin-1-yl)methanone], the inhibition at 5 µM is more than 90%.

`CC(=O)Nc1ccc(S(=O)(=O)N2CC[C@H](C(=O)N3CCN(c4ccnc5ccccc45)CC3)C2)cc1` [Example 23, (S)—N-(4-((3-(4-(quinolin-4-yl)piperazine-1-carbonyl)pyrrolidin-1-yl)sulfonyl)phenyl)acetamide]: the inhibition at 5 µM was more than 90%.

In the case of `COCCn1cnc(S(=O)(=O)N2CC[C@H](C(=O)N3CCN(c4ccnc5cc(F)ccc45)CC3)C2)n1` [Example 143, (S)-(4-(7-fluoroquinolin-4-yl)piperazin-1-yl)(1-((1-(2-methoxyethyl)-1H-1,2,4-triazol-3-yl)sulfonyl)pyrrolidin-3-yl)methanone], the inhibition at 5 µM was more than 90%.

For `O=C([C@H]1CCN(S(=O)(=O)c2ccccn2)C1)N1CCN(c2ccnc3cc(F)ccc23)CC1` [Example 157, (S)-(4-(7-fluoroquinolin-4-yl)piperazin-1-yl)(1-(pyridin-2-ylsulfonyl)pyrrolidin-3-yl)methanone], the inhibition at 5 µM is more than 90%.

As to `CC(=O)Nc1ccc(S(=O)(=O)N2CCC(C(=O)N3CCN(c4ccnc5cc(F)ccc45)CC3)C2)cc1` (stereo not drawn) [Example 1, N-(4-((3-(4-(7-fluoroquinolin-4-yl)piperazine-1-carbonyl)pyrrolidin-1-yl)sulfonyl)phenyl)acetamide], the inhibition at 5 µM was more than 90%.

In the case of `O=C(C1CCN(S(=O)(=O)c2ccc(-c3cccc(O)c3)nc2)C1)N1CCN(c2ccnc3ccccc23)CC1` (stereo not drawn) [Example 27, (1-((6-(3-hydroxyphenyl)pyridin-3-yl)sulfonyl)pyrrolidin-3-yl)(4-(quinolin-4-yl)piperazin-1-yl)methanone], the inhibition at 5 µM was more than 90%.

Regarding `CC(=O)Nc1ccc(S(=O)(=O)N2CC(C(=O)N3CCN(c4ccnc5ccccc45)CC3)C2)cc1` [Example 70, N-(4-((3-(4-(quinolin-4-yl)piperazine-1-carbonyl)azetidin-1-yl)sulfonyl)phenyl)acetamide], the inhibition at 5 µM was more than 90%.

For `O=C(C1CCN(S(=O)(=O)c2ccc(-c3ccncc3)cc2)C1)N1CCN(c2ccnc3cc(F)ccc23)CC1` (stereo not drawn) [Example 17, (4-(7-fluoroquinolin-4-yl)piperazin-1-yl)(1-((4-(pyridin-4-yl)phenyl)sulfonyl)pyrrolidin-3-yl)methanone], the inhibition at 5 µM was more than 90%.

For `Cn1ccnc1S(=O)(=O)N1CC[C@H](C(=O)N2CCN(c3ccnc4cc(F)ccc34)CC2)C1` [Example 7, (S)-(4-(7-fluoroquinolin-4-yl)piperazin-1-yl)(1-((1-methyl-1H-imidazol-2-yl)sulfonyl)pyrrolidin-3-yl)methanone], the inhibition at 5 µM is more than 90%.

As for `CC(=O)Nc1ccc(S(=O)(=O)N2CCC(C(=O)N3CCN(c4ccnc5ccccc45)CC3)C2)cn1` (stereo not drawn) [Example 30, N-(5-((3-(4-(quinolin-4-yl)piperazine-1-carbonyl)pyrrolidin-1-yl)sulfonyl)pyridin-2-yl)acetamide], the inhibition at 5 µM was more than 90%.

Regarding `O=C(C1CN(S(=O)(=O)c2ccc(-c3ccncc3)cc2)C1)N1CCN(c2ccnc3cc(F)ccc23)CC1` [Example 69, (4-(7-fluoroquinolin-4-yl)piperazin-1-yl)(1-((4-(pyridin-4-yl)phenyl)sulfonyl)azetidin-3-yl)methanone], the inhibition at 5 µM was more than 90%.
